Source: patent US20170360875A1 (priority 2014, published 2017)
Where “and” joins values, the source holds several entries; their conditions need not be identical. Identical values can stand only once. Like-named read-outs stand apart in the source and are kept apart here. Ends that are not written are not given here.

Experiments:
[1] = tested on: Sudan Ebolavirus Glycoprotein (GP); assay type: binding
[2] = tested on: hepatitis A virus; assay type: binding; details: for 1:10 HAV (OD 405 nm): 1:10 virus dilution, IC alone 0.997; for 1:100 HAV (OD 405 nm): 1:100 virus dilution, IC alone 0.953
[3] = tested on: FcγIIb/c; assay type: binding
[4] = tested on: FcγIIb; assay type: binding
[5] = tested on: Sudan Ebolavirus (SEBOV)
[6] = tested on: FcγIIIb (NA2); assay type: binding
[7] = tested on: FcγIIIa; assay type: binding
[8] = tested on: hepatitis C virus core protein; assay type: binding; details: NB406 10 mg/mL
[9] = tested on: FcγI; assay type: binding
[10] = tested on: Influenza A/MAL/NY/6750/78 H2N2 virus; details: for Percent Inhibition, 1:10 IAV / Percent Inhibition, 1:100 IAV: /MAL/NY/6750/78 H2N2 virus
[11] = tested on: C1q; assay type: binding, human
[12] = tested on: FcγIIa (H131 allele); assay type: binding, human
[13] = target: hepatitis C virus core protein (hepatitis C virus); test: reverse ELISA control; HRP without antibody on plate coated with 5 µg HCV core protein
[14] = target: Influenza A/MAL/NY/6750/78 H2N2 virus; test: reverse ELISA control; HRP without antibody on plate coated with IAV 1:100
[15] = target: hepatitis A virus; test: reverse ELISA control; HRP without antibody on plate coated with HAV 1:100
[16] = target: Influenza A/MAL/NY/6750/78 H2N2 virus; test: reverse ELISA control; HRP without antibody on plate coated with IAV 1:10
[17] = target: hepatitis A virus; test: reverse ELISA control; HRP without antibody on plate coated with HAV 1:10
[18] = target: Influenza A/MAL/NY/6750/78 H2N2 virus; test: reverse ELISA; PAP IC without inhibitor on plate coated with IAV 1:10
[19] = target: hepatitis C virus core protein (hepatitis C virus); test: reverse ELISA; PAP IC without inhibitor on plate coated with 5 µg HCV core protein; average of three experiments
[20] = target: recombinant Sudan Ebolavirus glycoprotein (IBT Bioservices, Catalogue Number 0501-015) (Sudan Ebolavirus)
[21] = target: FcγIIa (H131 allele) (UniProt P12318)
[22] = target: FcγIIa (R131 allele) (UniProt P12318)
[23] = target: FcγIIb (UniProt P31994); test: reverse ELISA; PAP IC without inhibitor on plate coated with FcγIIb
[24] = target: hepatitis A virus; test: reverse ELISA; PAP IC without inhibitor on plate coated with HAV 1:100; average of three experiments
[25] = target: FcγIIIb (NA2) (UniProt O75015); test: reverse ELISA; PAP IC without inhibitor on plate coated with FcγIIIb (NA2)
[26] = target: FcγIIb (UniProt P31994); test: reverse ELISA; PAP IC without inhibitor on plate coated with FcγIIb/c
[27] = target: FcγI (UniProt P12314); test: reverse ELISA; PAP IC without inhibitor on plate coated with FcγI
[28] = target: hepatitis A virus; test: reverse ELISA; PAP IC without inhibitor on plate coated with HAV 1:10; average of three experiments
[29] = target: Influenza A/MAL/NY/6750/78 H2N2 virus; test: reverse ELISA; PAP IC without inhibitor on plate coated with IAV 1:100
[30] = target: FcγIIIa (UniProt P08637); test: reverse ELISA; PAP IC without inhibitor on plate coated with FcγIIIa
[31] = target: human C1q (Quidel Corp.) (human) (UniProt P02745); test: reverse ELISA; PAP IC without inhibitor on C1q-coated plate
[32] = NB406 10 mg/mL, average of three experiments

UniProt P31994, sequence (P31994 46-217 limits assumed): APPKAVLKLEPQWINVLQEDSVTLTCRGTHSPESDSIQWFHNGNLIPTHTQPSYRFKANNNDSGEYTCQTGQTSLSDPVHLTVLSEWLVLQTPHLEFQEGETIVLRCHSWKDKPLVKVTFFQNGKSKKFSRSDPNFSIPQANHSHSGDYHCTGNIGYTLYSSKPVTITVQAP
UniProt P08637, sequence (P08637 17-208): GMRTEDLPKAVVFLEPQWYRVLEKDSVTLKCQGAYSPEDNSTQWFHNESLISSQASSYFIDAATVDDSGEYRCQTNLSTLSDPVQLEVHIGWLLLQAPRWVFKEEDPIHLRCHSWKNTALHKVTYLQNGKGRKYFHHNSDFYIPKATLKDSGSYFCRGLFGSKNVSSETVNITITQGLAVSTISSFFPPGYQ
UniProt P12314, sequence (P12314 16-288 limits assumed): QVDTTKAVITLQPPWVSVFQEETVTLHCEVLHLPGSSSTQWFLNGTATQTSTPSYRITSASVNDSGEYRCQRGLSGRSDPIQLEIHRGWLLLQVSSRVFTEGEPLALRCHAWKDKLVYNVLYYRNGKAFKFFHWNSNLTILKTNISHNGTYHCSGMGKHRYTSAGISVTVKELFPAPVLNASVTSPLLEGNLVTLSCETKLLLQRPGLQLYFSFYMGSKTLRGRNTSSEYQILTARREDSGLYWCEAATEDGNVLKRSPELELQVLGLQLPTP
UniProt P02745, sequence (P02745 23-245 limits assumed, chain 1 of 3): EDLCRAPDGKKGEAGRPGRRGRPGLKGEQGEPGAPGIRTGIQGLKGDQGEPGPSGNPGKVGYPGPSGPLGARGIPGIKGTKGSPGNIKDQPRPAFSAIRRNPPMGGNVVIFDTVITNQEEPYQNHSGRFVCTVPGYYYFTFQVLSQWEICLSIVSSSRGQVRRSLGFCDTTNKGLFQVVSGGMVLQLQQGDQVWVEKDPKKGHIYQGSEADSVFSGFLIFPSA
UniProt P02745, sequence (P02746 28-253 limits assumed, chain 2 of 3, further chain): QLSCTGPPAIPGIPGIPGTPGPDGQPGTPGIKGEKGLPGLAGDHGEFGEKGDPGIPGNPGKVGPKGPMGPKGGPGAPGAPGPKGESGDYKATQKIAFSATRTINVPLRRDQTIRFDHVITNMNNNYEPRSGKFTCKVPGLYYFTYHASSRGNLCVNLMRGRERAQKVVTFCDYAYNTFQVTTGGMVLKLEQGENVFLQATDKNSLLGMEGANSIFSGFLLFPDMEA
UniProt P02745, sequence (P02747 29-245 limits assumed, chain 3 of 3, further chain): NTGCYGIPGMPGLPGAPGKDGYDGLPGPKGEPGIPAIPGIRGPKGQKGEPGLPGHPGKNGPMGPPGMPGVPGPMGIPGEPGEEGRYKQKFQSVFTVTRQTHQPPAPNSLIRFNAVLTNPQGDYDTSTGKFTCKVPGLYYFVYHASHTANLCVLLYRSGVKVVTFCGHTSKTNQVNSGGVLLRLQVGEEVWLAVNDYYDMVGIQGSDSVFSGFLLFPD
UniProt O75015, sequence (O75015 17-200 N65S): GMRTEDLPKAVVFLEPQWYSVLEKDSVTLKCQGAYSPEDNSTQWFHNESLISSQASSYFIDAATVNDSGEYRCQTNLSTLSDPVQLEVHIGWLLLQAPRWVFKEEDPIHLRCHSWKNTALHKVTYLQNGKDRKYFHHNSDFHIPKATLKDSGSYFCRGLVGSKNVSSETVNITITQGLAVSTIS

## CC(C)C[C@@H]1NC(=O)[C@H](Cc2c[nH]cn2)NC(=O)[C@H](Cc2c[nH]c3ccccc23)NC(=O)[C@H](C)NC(=O)[C@@H](NC(=O)[C@H](CC(=O)O)NC(=O)[C@@H]2CCCN2C(=O)[C@@H]2CCCN2C(=O)[C@H](C)N)CSSC[C@@H](C(=O)N[C@H](C(=O)O)[C@@H](C)O)NC(=O)[C@H](Cc2c[nH]c3ccccc23)NC(=O)[C@H](C(C)C)NC(=O)[C@H](CC(C)C)NC(=O)[C@H](CCC(=O)O)NC(=O)CNC1=O [SEQ ID NO:20]
[1]
  1 ug/mL GP (OD read at 405 nm): 0.042 and 0.053 and 0.071
  3 ug/mL GP (OD read at 405 nm): 0.042 and 0.046 and 0.081
  Percent Inhibition, 1 ug/mL GP: 96.8% and 96.0% and 94.6%
  Percent Inhibition, 3 ug/mL GP: 96.9% and 96.7% and 94.1%
  Percent Inhibition, 10 ug/mL GP: 97.1% and 96.4% and 94.1%
  prevention of binding of IC to the Ebolavirus glycoprotein (in words): can effectively prevent the binding of IC to the Ebolavirus glycoprotein
[2]; NB406 1.11 mg/mL
  1:10 HAV (OD 405 nm): 0.762
  1:100 HAV (OD 405 nm): 0.774
[2]; NB406 3.33 mg/mL
  1:10 HAV (OD 405 nm): 0.305
  1:100 HAV (OD 405 nm): 0.155
[2]; [32]
  1:10 HAV (OD 405 nm): 0.050
  1:100 HAV (OD 405 nm): 0.055
[2]; conclusion from Table 5
  prevention of binding of IC to the hepatitis A virus (in words): can effectively prevent the binding of IC to the hepatitis A virus
[3]
  % inhibition of IC binding, FcγIIb/c: 88%
  FcγIIb/c (read at 405 nm): 0.266
  inhibited binding of FcγRIIb to immune complexed IgG Fc: more than 70%
[4]
  OD405 FcγIIb: 0.496
[5]
  prevention of binding of IC to the Ebola virus (in words): can effectively prevent the binding of IC to the Ebola virus
[5]; 1 mg/mL
  Percent Inhibition, 1:100 SEV: 77.6%
  Percent Inhibition, 1:1000 SEV: 64.8%
  Percent Inhibition, 1:10000 SEV: 58.6%
[5]; 3 mg/mL
  Percent Inhibition, 1:100 SEV: 95.1%
  Percent Inhibition, 1:1000 SEV: 94.6%
  Percent Inhibition, 1:10000 SEV: 94.6%
[5]; 10 mg/mL
  Percent Inhibition, 1:100 SEV: 96.6%
  Percent Inhibition, 1:1000 SEV: 96.3%
  Percent Inhibition, 1:10000 SEV: 96.3%
[6]
  % inhibition of IC binding, FcγIIIb (NA2): 91%
  FcγIIIb (NA2) (read at 405 nm): 0.266
[7]
  OD405 FcγIIIa: 0.670
[8]
  Percent Inhibition, 5 μg HCV Core Protein: 89.7%
[8]; IC alone 2.752, average of three experiments
  5 μg HCV Core Protein (OD 405 nm): 0.283
[9]
  % inhibition of IC binding, FcγI: 89%
  FcγI (read at 405 nm): 0.264
[10]
  prevention of binding of IC to the influenza virus (in words): can effectively prevent the binding of IC to the influenza virus
[10]; 0.37 mg/mL
  Percent Inhibition, 1:10 IAV: 63.5%
  Percent Inhibition, 1:100 IAV: 61.6%
[10]; 1.11 mg/mL
  Percent Inhibition, 1:10 IAV: 89.5%
  Percent Inhibition, 1:100 IAV: 88.7%
[10]; 3.33 mg/mL
  Percent Inhibition, 1:10 IAV: 96.6%
  Percent Inhibition, 1:100 IAV: 96.0%
[10]; 10 mg/mL
  Percent Inhibition, 1:10 IAV: 97.6%
  Percent Inhibition, 1:100 IAV: 97.0%
[11]
  OD 405 nm: 0.389
  inhibition of C1q binding (rank in words): greatest inhibition of C1q binding
[12]
  % inhibition of IC binding, FcγIIa* (H131 allele): 94%
  FcγIIa* (H131 allele) (read at 405 nm): 0.209
  inhibited binding of FcγRIIa to immune complexed IgG Fc: more than 70%

## APPCAFHLGELVWCT (cysteine pairing not given here) [SEQ ID NO:18]
[4]
  OD405 FcγIIb: 0.380
[7]
  OD405 FcγIIIa: 0.880
[11]
  OD 405 nm: 0.983

## APPCARHLGELVWCT (cysteine pairing not given here) [SEQ ID NO:16]
[4]
  OD405 FcγIIb: 0.768
[7]
  OD405 FcγIIIa: 0.709
[11]
  OD 405 nm: 0.567
  inhibition of C1q binding (rank in words): next best result

## APPCAWHLGELVWCT (cysteine pairing not given here) [SEQ ID NO:14]
[4]
  OD405 FcγIIb: 0.562
[7]
  OD405 FcγIIIa: 0.530
[11]
  OD 405 nm: 1.148

## Asp-Cys-Ala-Phe-His-Leu-Gly-Glu-Leu-Val-Trp-Cys-Thr [SEQ ID NO:3]
[4]
  OD405 FcγIIb: 0.510
[7]
  OD405 FcγIIIa: 0.810
[11]
  OD 405 nm: 0.859

## Asp-Cys-Ala-Trp-His-Leu-Gly-Glu-Leu-Val-Trp-Cys-Thr [SEQ ID NO:2]
[4]
  OD405 FcγIIb: 0.532
[7]
  OD405 FcγIIIa: 0.741
[11]
  OD 405 nm: 1.100

## horseradish peroxidase (HRP), Sigma-Aldrich P6782 (from UniProt P00433 31-338) (enzyme)
[13]
  OD 405 nm: 0.172 OD 405 nm
[14]
  OD 405 nm: 0.178 OD 405 nm
[15]
  OD 405 nm: 0.138 OD 405 nm
[16]
  OD 405 nm: 0.163 OD 405 nm
[17]
  OD 405 nm: 0.117 OD 405 nm

## preformed immune complex of peroxidase-rabbit anti-peroxidase IgG (PAP complex) (from UniProt P00433 31-338)
[18]
  OD 405 nm: 1.94 OD 405 nm
[19]
  OD 405 nm: 2.75 OD 405 nm
[20]
  OD 405 nm: 1.61 OD 405 nm and 1.38 OD 405 nm and 1.31 OD 405 nm
[21]
  OD 405 nm: 3.51 OD 405 nm
[22]
  OD405: 1.6 OD405
[23]
  OD405: 1.39 OD405
[24]
  OD 405 nm: 0.953 OD 405 nm
[25]
  OD 405 nm: 3.06 OD 405 nm
[26]
  OD 405 nm: 2.22 OD 405 nm
[27]
  OD 405 nm: 2.33 OD 405 nm
[28]
  OD 405 nm: 0.997 OD 405 nm
[29]
  OD 405 nm: 1.87 OD 405 nm
[30]
  OD405: 1.59 OD405
[31]
  OD 405 nm: 2.35 OD 405 nm
